Measured values reported in patent publication US20110281852A1 (priority 2010, published 2011).

What was measured:
[1] = system: 3T3-L1 cells; experiment: Oil-Red-O staining and quantification, berberine with amentoflavone in 3T3-L1 (Example 6); type: cell-based, mouse; details: 8 days
Description: Oil-Red-O staining and quantification: Oil-Red-O Staining and its quantification were performed as previously reported. Briefly, medium was removed and cells were washed with PBS twice, fixed with 3.7% formalin at room temperature for 30 min, then rinsed with pure water, added 60% isopropanol and incubated for 5 minutes, then moved out isopropanol and stained cells with diluted Oil-Red-O solution (Oil-Red-O store solution (3 mg/ml in pure isopropanol): water=3:2) at room temperature for 10 min. Then the diluted Oil-Red-O solution was removed and cells were washed 3 times with pure water. After staining, the cells were washed twice with 70% ethanol to remove excess stain. Stained oil droplets in the cells were dissolved in isopropanol containing 4% Nonidet-P40 (Fisher Scientific, Pittsburgh, Pa., USA) shaking in 37° C. at speed 100 rpm for 1 hour, and OD values were measured at an absorbance of 490 nm and then normalized with control group.

[2] = system: C/EBPα; experiment: Immunoblotting, C/EBPα protein in 3T3-L1; type: cell-based, mouse; details: 8 days
Description: Immunoblotting: Protein expression of SREBP-1, PPARγ, and C/EBPα relative to […] was assessed by Western Blot. Total proteins were isolated from 3T3-L1 cells treated with compounds or vehicles for 8 days. The cells were washed twice with PBS, lysed in a HEPES-Tx-PI buffer ([…], 5 mM EDTA, 350 mM Sucrose, 1 μg/ml leupeptin, 1 μg/ml pepstatin, 1% Triton-X, 1 mM PMSF), processed with 25G needles and centrifuged at 12,000 rpm for 5 min. Protein concentration was determined using the Micro BCA Protein Assay Kit (Fisher Scientific, Pittsburgh, Pa., USA) following the manufacturers instructions. 25 μg proteins were loaded and separated by electrophoresis using the BioRad Electrophoretic System (65 V for 7 hour). The proteins were then transferred to nitrocellulose membranes at 40 V overnight. The membrane was blocked for 1 hour at room temperature in 5% nonfat milk in Tris-buffered saline (TBS), then washed with Tween-20-TBS (TTBS, 0.1% Tween-20) three times (15 min, 5 min, 5 min), followed by incubation with primary antibodies SREBP-1 (dilution 1:200), PPARγ (dilution 1:200), C/EBPα (dilution 1:200) (all purchased from Santa Cruz Biotechnology, Santa Cruz, Calif., USA) and […] (dilution 1:1000, Sigma-Aldrich, St. Louis, Mo., USA) at room temperature for 2 hours. […]

[3] = system: fatty acid synthase (FAS); experiment: Real-time RT-PCR, FAS mRNA in 3T3-L1; type: cell-based, mouse; details: 8 μM berberine + 50 μM risperidone, 8 days
Text: Realtime RT-PCR: Real-time reverse transcriptase polymerase chain reaction (RT-PCR) analysis was used to measure mRNA expression of genes SREBP-1, PPARγ, C/EBPα, low density lipoprotein receptor (LDLR), Adiponectin, and fatty acid synthase (FAS) under the control of β-actin. Briefly, total RNA was isolated from 3T3-L1 cells following treatment for 8 days with Trizol reagent (Invitrogen, Carlsbad, Calif., USA) according to the manufacturer's instruction. RNA was quantified using absorption of light at 260 nm, and sample purity was checked by OD 260 nm/280 nm. 0.8 μg of total RNA from each sample was used for reverse transcription reaction using the TaqMan Reverse Transcription Reagents (Applied Biosystems, Foster City, Calif., USA) according to the manufacturers' instructions. PCR was done using the SYBR green Master Mix (Applied Biosystems, Foster City, Calif., USA) according to the manufacturers' instructions. The temperature cycling conditions of amplification were as follows: an initial step of denaturation at 95° C. for 10 min, 40 cycles of denaturation at 95° C. for 30 s, annealing at 55° C. for 30 s, and elongation at 72° C. for 30 s. Realtime RT-PCR was performed using Mx3000P Realtime Thermocyclers (Statagene, La Jolla, Calif., USA). The relative mRNA levels of these genes were calculated by 2-delta delta CT method and normalized with control groups.

[4] = system: SERT (serotonin transporter); experiment: Real-Time RT-PCR, SERT mRNA in RN46A cells; type: cell-based
Description: Realtime RT-PCR: Real-Time reverse transcriptase polymerase chain reaction (RT-PCR) analysis was used to measure mRNA expression of SERT under the control of β-actin. Briefly, total RNA was isolated from RN46A cells following treatment with Trizol reagent (Invitrogen, Carlsbad, Calif., USA) according to the manufacturer's instruction. […] 0.8 μg of total RNA from each sample was used for reverse transcription reaction using the TaqMan Reverse Transcription Reagents (Applied Biosystems, Foster City, Calif., USA) following the manufacturer's instructions. PCR was done using the SYBR green Master Mix (Applied Biosystems, Foster City, Calif., USA) following the manufacturer's instructions. The temperature cycling conditions of amplification were as follows: an initial step of denaturation at 95° C. for 10 min, 40 cycles of denaturation at 95° C. for 30 s, annealing at 55° C. for 30 s, and elongation at 72° C. for 30 s. Real-Time RT-PCR was performed using Mx3000P Real-Time Thermocyclers (Statagene, La Jolla, Calif., USA).

Row | Molecule | reduction in lipid content vs no berberine treated group ([1]; 2 μM berberine, differentiation medium with 15 μM clozapine) | reduction in lipid content vs no berberine treated group ([1]; 2 μM berberine, differentiation medium without clozapine) | reduction in lipid content vs no berberine treated group ([1]; 4 μM berberine, differentiation medium with 15 μM clozapine) | reduction in lipid content vs no berberine treated group ([1]; 4 μM berberine, differentiation medium without clozapine) | reduction in lipid content vs no berberine treated group ([1]; 8 μM berberine, differentiation medium with 15 μM clozapine) | reduction in lipid content vs no berberine treated group ([1]; 8 μM berberine, differentiation medium without clozapine) | reduction in lipid content vs no berberine treated group ([1]; 16 μM berberine, differentiation medium without clozapine) | decrease of C/EBPα protein expression vs clozapine treated group ([2]; 8 μM berberine + 15 μM clozapine) | decrease of C/EBPα protein expression vs risperidone treated group ([2]; 8 μM berberine + 50 μM risperidone) | decrease of FAS mRNA expression vs risperidone treated group [3] | increase of SERT mRNA expression vs control group ([4]; 2 μM evodiamine) | increase of SERT mRNA expression vs control group ([4]; 4 μM evodiamine)
1 | COc1ccc2cc3[n+](cc2c1OC)CCc1cc2c(cc1-3)OCO2.[Cl-] [berberine, Berberine (Chloride Form)] | 26% | 9.9% | 70.7% | 59.6% | 88.1% | 81.7% | 81% | 73% | 68% | 85.5% |  | 
2 | evodiamine |  |  |  |  |  |  |  |  |  |  | 2.5 fold | 1.7 fold
